Patent US20090053168A1, “TREATMENTS OF B-CELL PROLIFERATIVE DISORDERS” (priority 2007, published 2009)
Read-outs that look alike come from different tables or passages of the source.

Assays:
MM.1S cells [1] = assay: Anti-proliferation assay (ATPLite, 72 h), MM.1S; settings: for activity and synergy in antiproliferation assays: RPMI-8226, H929, MM.1S and MM.1R MM cell lines; for synergy score: in combination with CGS-21680; for synergy score / percent inhibition of cell proliferation: MM.1S; for percent inhibition of cell proliferation: DEX 0 nM
[2] = system: Farage (non-Hodgkin's B cell lymphoma) cells; assay: Anti-proliferation assay (ATPLite, 72 h), Farage; format: cell-based; settings: x dexamethasone
[3] = system: GA-10 (Burkitt's lymphoma) cells; assay: Anti-proliferation assay (ATPLite, 72 h), GA-10; format: cell-based; settings: x dexamethasone
OPM2 cells = assay: Anti-proliferation assay (ATPLite, 72 h), OPM2; format: cell-based, human; settings: for synergy score: in combination with CGS-21680, OPM-8
ANBL-6 cells = assay: Anti-proliferation assay (ATPLite, 72 h), ANBL-6; format: cell-based; settings: in combination with CGS-21680
KSM-12-PE cells = assay: Anti-proliferation assay (ATPLite, 72 h), KSM-12-PE; format: cell-based; settings: in combination with CGS-21680; KSM-12-PE
MOLP-8 cells = assay: Anti-proliferation assay (ATPLite, 72 h), MOLP-8; format: cell-based; settings: in combination with CGS-21680
EJM cells = assay: Anti-proliferation assay (ATPLite, 72 h), EJM; format: cell-based; settings: in combination with CGS-21680
[4] = system: mantle cell lymphoma cell line JVM-13; assay: Anti-proliferation assay (ATPLite, 72 h), JVM-13; format: cell-based, human
Description: (§1) All of the cell lines were cultured in RPMI-1640 media supplemented with 10% FBS except OCI Ly10 cells (IMDM media supplemented with 20% human serum). The ANBL-6 cell line culture media also contained 10 ng/ml IL-6. MM.1S, MM.1R, SU-DHL6, Karpas 422, and OCI ly10 cells were provided by the Dana Farber Cancer Institute. ANBL-6 cells were provided by Bob Orlowsli (M.D. Anderson Cancer Research Center). H929, RPMI-8226, GA-10, Farage, Mino, JVM-13, Pfeiffer, Toledo, and Kusami-1 cells were from ATCC (Cat #'s CCL-155, CRL-9068, CRL-2392 CRL-2630, CRL-3000, CRL-3003, CRL-2632, CRL-2631, and CRL-2724 respectively). MOLP-8, OPM2, EJM, and KSM-12-PE cells were from DSMZ.
(§2) Compounds were prepared in DMSO at 1000× the highest desired concentration. Master plates were generated consisting of serially diluted compounds in 2- or 3-fold dilutions in 384-well format. For single agent dose response curves, the master plates consisted of 9 individual compounds at 12 concentrations in 2- or 3-fold dilutions. For combination matrices, master plates consisted of individual compounds at 6 or 9 concentrations at 2- or 3-fold dilutions.
(§3) The average untreated well value (avg. untreated wells) is the arithmetic mean of 40 wells from the same assay plate treated with vehicle alone. Negative inhibition values result from local variations in treated wells as compared to untreated wells.
(§4) The uncertainty of each fitted parameter was estimated from the range over which the change in reduced chi-squared was less than one, or less than minimum reduced chi-squared if that minimum exceeded one, to allow for underestimated σI errors.
(§5) Single agent curve data were used to define a dilution series for each compound to, be used for combination screening in a 6×6 matrix format. […] For compounds with no detectable single agent activity, a dilution factor of 4 was used, starting from the highest achievable concentration.
(§6) The Loewe additivity model was used to quantify combination effects. Combinations were ranked initially by Additivity Excess Volume, which is defined as ADD Volume=ΣCX, CY(Idata−ILoewe). where ILoewe(CX,CY) is the inhibition that satisfies (CX/ECX)+(CY/ECY)=1, and ECX,Y are the effective concentrations at ILoewe for the single agent curves. A “Synergy Score” was also used, where the Synergy Score S=log fX log fY ΣIdata (Idata−ILoewe), summed over all non-single-agent concentration pairs, and where log fX,Y is the natural logarithm of the dilution factors used for each single agent.

[5] = system: mantle cell lymphoma cell line Mino; assay: Anti-proliferation assay (ATPLite, 72 h), Mino; format: cell-based, human
Description: as §1, §2, §3, §4, §5, §6

H929 cells = assay: Anti-proliferation assay (ATPLite, 72 h), H929; format: cell-based; settings: combination with dexamethasone; Loewe-based Synergy Score; 72 h
RPMI-8226 cells = assay: Anti-proliferation assay (ATPLite, 72 h), RPMI-8226; format: cell-based; settings: combination with dexamethasone; Loewe-based Synergy Score; 72 h
MM.1S cells [6] = system: MM.1S cells

CNC(=O)[C@H]1O[C@@H](n2cnc3c(NCc4cccc(I)c4)ncnc32)[C@H](O)[C@@H]1O [IB-MECA, N^6-(3-iodobenzyl)-5′-N-methylcarboxamidoadenosine]
activity and synergy in antiproliferation assays (MM.1S cells [1]): active and synergistic
synergy score [2]: 2.91
synergy score [3]: 2.23

Nc1cccc2c1CN(C1CCC(=O)NC1=O)C2=O (centres unmarked) [lenalidomide]
synergy score (MM.1S cells [1]): 4.87
synergy score (OPM2 cells): 1.36
synergy score (ANBL-6 cells): 1.45
synergy score (KSM-12-PE cells): 0.83
synergy score (MOLP-8 cells): 1.65
synergy score (EJM cells): 0.32

COC1=C2C[C@@H](C)C[C@H](OC)[C@H](O)[C@@H](C)/C=C(\C)[C@H](OC(N)=O)[C@@H](OC)/C=C\C=C(/C)C(=O)NC(=CC1=O)C2=O [Geldanomycin]
percent inhibition of cell proliferation ([4]; Geldanomycin 0.0064 μM alone): −5.8%
percent inhibition of cell proliferation ([4]; Geldanomycin 0.019 μM alone): −7.8%
percent inhibition of cell proliferation ([4]; Geldanomycin 0.057 μM alone): 7.6%
percent inhibition of cell proliferation ([4]; Geldanomycin 0.17 μM alone): 12%
percent inhibition of cell proliferation ([4]; Geldanomycin 0.52 μM alone): 19%
percent inhibition of cell proliferation ([5]; Geldanomycin 0.0064 μM alone): 4.7%
percent inhibition of cell proliferation ([5]; Geldanomycin 0.019 μM alone): 4.3%
percent inhibition of cell proliferation ([5]; Geldanomycin 0.057 μM alone): 6.7%
percent inhibition of cell proliferation ([5]; Geldanomycin 0.17 μM alone): 14%
percent inhibition of cell proliferation ([5]; Geldanomycin 0.52 μM alone): 27%

CC(/C=C/C(=O)NO)=C\[C@@H](C)C(=O)c1ccc(N(C)C)cc1 [Trichostatin A]
percent inhibition of cell proliferation (OPM2 cells; Trichostatin A 0.0063 μM alone): 13%
percent inhibition of cell proliferation (OPM2 cells; Trichostatin A 0.025 μM alone): 48%
percent inhibition of cell proliferation (OPM2 cells; Trichostatin A 0.05 μM alone): 76%
percent inhibition of cell proliferation (OPM2 cells; Trichostatin A 0.1 μM alone): 99%
percent inhibition of cell proliferation ([5]; Trichostatin A 0.0063 μM alone): 24%
percent inhibition of cell proliferation ([5]; Trichostatin A 0.025 μM alone): 78%
percent inhibition of cell proliferation ([5]; Trichostatin A 0.05 μM alone): 100%
percent inhibition of cell proliferation ([5]; Trichostatin A 0.1 μM alone): 100%

COc1cccc2c1C(=O)c1c(O)c3c(c(O)c1C2=O)C[C@@](O)(C(=O)CO)C[C@@H]3O[C@H]1C[C@H](N)[C@H](O)[C@H](C)O1 [doxorubicin]
synergy score (MM.1S cells [1]): 1.65
synergy score (OPM2 cells): 0.46
synergy score (ANBL-6 cells): 2.54
synergy score (KSM-12-PE cells): 0.81
synergy score (MOLP-8 cells): 1.16
synergy score (EJM cells): 1.21

CNC(=O)[C@H]1O[C@@H](n2cnc3c(NCc4cccc(I)c4)nc(Cl)nc32)[C@H](O)[C@@H]1O [Chloro-IB-MECA, 2-chloro-N^6-(3-iodobenzyl)-5′-N-methylcarboxamidoadenosine]
percent inhibition of cell proliferation (MM.1S cells [1]; Cl-IB-MECA 0.352 nM, 72 h): 16%
percent inhibition of cell proliferation (MM.1S cells [1]; Cl-IB-MECA 1.06 nM, 72 h): 5.9%
percent inhibition of cell proliferation (MM.1S cells [1]; Cl-IB-MECA 3.16 nM, 72 h): 6.3%
percent inhibition of cell proliferation (MM.1S cells [1]; Cl-IB-MECA 9.49 nM, 72 h): 9.1%
percent inhibition of cell proliferation (MM.1S cells [1]; Cl-IB-MECA 28.5 nM, 72 h): −0.6%
percent inhibition of cell proliferation (MM.1S cells [1]; Cl-IB-MECA 85.4 nM, 72 h): 6.3%
percent inhibition of cell proliferation (MM.1S cells [1]; Cl-IB-MECA 256 nM, 72 h): 27%
percent inhibition of cell proliferation (MM.1S cells [1]; Cl-IB-MECA 769 nM, 72 h): 71%
IC50 (MM.1S cells [1]; Homo sapiens, MM1.S, read-out: IC50 (no IL-6)): 0.838 µM
activity and synergy in antiproliferation assays (MM.1S cells [1]): active and synergistic
Synergy score with dexamethasone, MM.1S (MM.1S cells [1]; combination with dexamethasone, Loewe-based Synergy Score, 72 h): 8.37
Synergy score with dexamethasone, H929 (H929 cells): 5.29
Synergy score with dexamethasone, RPMI-8226 (RPMI-8226 cells): 5.61
Percent inhibition of cell growth by Chloro-IB-MECA (MM.1S cells [6]; Cl-IB-MECA 0.19 μM, 78 nM SCH58261): 5.2%
Percent inhibition of cell growth by Chloro-IB-MECA (MM.1S cells [6]; Cl-IB-MECA 0.19 μM, 87 nM MRS1523): 19%
Percent inhibition of cell growth by Chloro-IB-MECA (MM.1S cells [6]; Cl-IB-MECA 0.19 μM, 89 nM DPCPX): 7.4%
Percent inhibition of cell growth by Chloro-IB-MECA (MM.1S cells [6]; Cl-IB-MECA 0.19 μM, 89 nM MRS1754): 25%
Percent inhibition of cell growth by Chloro-IB-MECA (MM.1S cells [6]; Cl-IB-MECA 0.19 μM, 150 nM SCH58261): −3.8%
Percent inhibition of cell growth by Chloro-IB-MECA (MM.1S cells [6]; Cl-IB-MECA 0.19 μM, 170 nM MRS1523): 26%
Percent inhibition of cell growth by Chloro-IB-MECA (MM.1S cells [6]; Cl-IB-MECA 0.19 μM, 174 nM DPCPX): 12%
Percent inhibition of cell growth by Chloro-IB-MECA (MM.1S cells [6]; Cl-IB-MECA 0.19 μM, 175 nM MRS1754): 21%
Percent inhibition of cell growth by Chloro-IB-MECA (MM.1S cells [6]; Cl-IB-MECA 0.19 μM, no antagonist): 20%
Percent inhibition of cell growth by Chloro-IB-MECA (MM.1S cells [6]; Cl-IB-MECA 1.5 μM, 78 nM SCH58261): 8.1%
Percent inhibition of cell growth by Chloro-IB-MECA (MM.1S cells [6]; Cl-IB-MECA 1.5 μM, 87 nM MRS1523): 54%
Percent inhibition of cell growth by Chloro-IB-MECA (MM.1S cells [6]; Cl-IB-MECA 1.5 μM, 89 nM DPCPX): 47%
Percent inhibition of cell growth by Chloro-IB-MECA (MM.1S cells [6]; Cl-IB-MECA 1.5 μM, 89 nM MRS1754): 50%
Percent inhibition of cell growth by Chloro-IB-MECA (MM.1S cells [6]; Cl-IB-MECA 1.5 μM, 150 nM SCH58261): 4.3%
Percent inhibition of cell growth by Chloro-IB-MECA (MM.1S cells [6]; Cl-IB-MECA 1.5 μM, 170 nM MRS1523): 61%
Percent inhibition of cell growth by Chloro-IB-MECA (MM.1S cells [6]; Cl-IB-MECA 1.5 μM, 174 nM DPCPX): 46%
Percent inhibition of cell growth by Chloro-IB-MECA (MM.1S cells [6]; Cl-IB-MECA 1.5 μM, 175 nM MRS1754): 45%
Percent inhibition of cell growth by Chloro-IB-MECA (MM.1S cells [6]; Cl-IB-MECA 1.5 μM, no antagonist): 61%
Percent inhibition of cell growth by Chloro-IB-MECA (MM.1S cells [6]; Cl-IB-MECA 3.1 μM, 78 nM SCH58261): 28%
Percent inhibition of cell growth by Chloro-IB-MECA (MM.1S cells [6]; Cl-IB-MECA 3.1 μM, 87 nM MRS1523): 69%
Percent inhibition of cell growth by Chloro-IB-MECA (MM.1S cells [6]; Cl-IB-MECA 3.1 μM, 89 nM DPCPX): 64%
Percent inhibition of cell growth by Chloro-IB-MECA (MM.1S cells [6]; Cl-IB-MECA 3.1 μM, 89 nM MRS1754): 71%
Percent inhibition of cell growth by Chloro-IB-MECA (MM.1S cells [6]; Cl-IB-MECA 3.1 μM, 150 nM SCH58261): 16%
Percent inhibition of cell growth by Chloro-IB-MECA (MM.1S cells [6]; Cl-IB-MECA 3.1 μM, 170 nM MRS1523): 74%
Percent inhibition of cell growth by Chloro-IB-MECA (MM.1S cells [6]; Cl-IB-MECA 3.1 μM, 174 nM DPCPX): 60%
Percent inhibition of cell growth by Chloro-IB-MECA (MM.1S cells [6]; Cl-IB-MECA 3.1 μM, 175 nM MRS1754): 72%
Percent inhibition of cell growth by Chloro-IB-MECA (MM.1S cells [6]; Cl-IB-MECA 3.1 μM, no antagonist): 70%
synergy score [2]: 3.17
